Data taken from patent US20250129096A1, “ANNULATED 2-AMINO-3-CYANO THIOPHENES AND DERIVATIVES FOR THE TREATMENT OF CANCER” (Boehringer Ingelheim Int'l GmbH Corp., priority 2021, published 2025).
Values after ≈ are worked out from the molar mass of the structure shown. Where two headings read alike, the source gives them in different places.

Legend:
KRAS (G12D)::SOS1 = biological target: T1, KRAS (G12D)::SOS1 (Homo sapiens, UniProt P01116, G12D); experiment: KRAS::SOS1 AlphaScreen binding assay, KRAS G12D
T1 construct: KRAS (G12D) 1-169, N-terminal 6His-tag, C-terminal avi-tag; 6His-tag (N); purchased Xtal BioStructures, Inc. (KRAS G12D); Viva Biotech Ltd (SOS1)
Experimental: (§1) Low IC50 values in this assay setting are indicative of strong inhibition of protein-protein interaction between SOS1 and KRAS:
(§2) These assays measure the inhibitory effect of compounds on KRAS mutant protein-protein interactions using the Alpha Screen technology by Perkin Elmer.
(§3) For the chosen highest assay concentration of 100 μM, 150 nL of compound solution are transferred from a 10 mM DMSO compound stock solution. A series of eleven fivefold dilutions per compound are transferred to the assay plate, compound dilutions are tested in duplicates. DMSO are added as backfill to a total volume of 150 nL.
(§4) The assays run on a fully automated robotic system in a darkened room below 100 Lux. To 150 nl of compound dilution 10 μl of a mix including KRAS mutant protein, SOS1 (final assay concentrations see above) and GDP nucleotide (Sigma G7127; final assay concentration 10 μM) in assay buffer (1×PBS, 0.1% BSA, 0.05% Tween 20) are added into columns 1-24. After 30 minutes incubation time 5 μl of Alpha Screen bead mix in assay buffer are added into columns 1-23.
(§5) Plates are kept at room temperature in a darkened incubator. After an additional 60 minutes incubation time the signal is measured in a PerkinElmer Envision HTS Multilabel Reader using the AlphaScreen specs from PerkinElmer.
(§6) IC50 values are calculated and analyzed with Boehringer Ingelheim's MEGALAB IC50 application using a 4 parametric logistic model.

KRAS (G12C)::SOS1 = biological target: T2, KRAS (G12C)::SOS1 (Homo sapiens, UniProt P01116, C118S/C51S/C80L/G12C); experiment: KRAS::SOS1 AlphaScreen binding assay, KRAS G12C
T2 construct: KRAS (G12C) 1-169, N-terminal 6His-tag for purification, cleaved off; 6His-tag (N, cleaved yes)
Experimental: as §1, §2, §3, §4, §5, §6

KRAS (WT)::SOS1 = biological target: T3, KRAS (WT)::SOS1 (Homo sapiens, UniProt P01116, C118S); experiment: KRAS::SOS1 AlphaScreen binding assay, KRAS WT
T3 construct: KRAS (WT) 1-169, N-terminal 6His-tag for purification, cleaved off; 6His-tag (N, cleaved yes); TEV cleavage site
Experimental: as §1, §2, §3, §4, §5, §6

KRAS G12D Ba/F3 cells = KRAS G12D Ba/F3 cells (Homo sapiens, UniProt P01116, G12D, cells depend on it); experiment: Ba/F3 proliferation assay, KRAS G12D; assay type: cell-based; conditions: 72 h, AlamarBlue; read-out: KRAS G12D Ba/F3 IC50
Experimental: (§7) To generate KRASG12-dependent Ba/F3 models, Ba/F3 cells are transduced with retroviruses containing vectors that harbor KRASG12 isoforms. Platinum-E cells (Cell Biolabs) are used for retrovirus packaging. Retrovirus is added to Ba/F3 cells. To ensure infection, 4 μg/mL polybrene is added and cells are spinfected. […] Cells with an infection efficiency of 10% to 20% are further cultivated and puromycin selection with 1 μg/mL is initiated. As a control, parental Ba/F3 cells are used to show selection status. Selection is considered successful when parental Ba/F3 cells cultures died. To evaluate the transforming potential of KRASG12 mutations, the growth medium is no longer supplemented with IL-3. Ba/F3 cells harboring the empty vector are used as a control. Approximately ten days before conducting the experiments, puromycin is left out. […] All treatments are performed in technical duplicates. […] AlamarBlue™(ThermoFisher), a viability stain, is added and fluorescence measured in the PerkinElmer Envision HTS Multilabel Reader. The raw data are imported into and analyzed with the Boehringer Ingelheim proprietary software MegaLab (curve fitting based on the program PRISM, GraphPad Inc.).

KRAS G12C Ba/F3 cells = KRAS G12C Ba/F3 cells (Homo sapiens, UniProt P01116, G12C, cells depend on it); experiment: Ba/F3 proliferation assay, KRAS G12C; assay type: cell-based; conditions: 72 h, AlamarBlue; read-out: KRAS G12C Ba/F3 IC50
Experimental: as §7

[1] = Metabolic (microsomal) stability assay, HLM; assay type: in vitro ADME; conditions: human liver microsomes, 1 μM test compound, predicted clearance as percent of liver blood flow
Experimental: The metabolic degradation of the test compound is assayed at 37° C. with pooled liver microsomes (mouse (MLM), rat (RLM) or human (HLM)). The final incubation volume of 48 μL per time point contains TRIS buffer (pH 7.5; 0.1 M), magnesium chloride (6.5 mM), microsomal protein (0.5 mg/mL for mouse/rat, 1 mg/mL for human specimens) and the test compound at a final concentration of 1 μM. Following a short preincubation period at 37° C., the reactions are initiated by addition of 12 μL beta-nicotinamide adenine dinucleotide phosphate, reduced form (NADPH, 10 mM) and terminated by transferring an aliquot into solvent after different time points (0, 5, 15, 30, 60 min). Additionally, the NADPH-independent degradation is monitored in incubations without NADPH, terminated at the last time point by addition of acetonitrile. The quenched incubations are pelleted by centrifugation (4,000 rpm, 15 min). An aliquot of the supernatant is assayed by LC-MS/MS to quantify the concentration of parent compound in the individual samples.
In vitro intrinsic clearance (CLint, in vitro) is calculated from the time course of the disappearance of the test drug during the microsomal incubation. Each plot is fitted to the first-order elimination rate constant as C(t)=C0*exp(−ke*t), where C(t) and C0 are the concentration of unchanged test drug at incubation time t and that at preincubation and ke is the disappearance rate constant of the unchanged drug. Subsequently, CLint, in vitro (μL min^−1·amount protein) values are converted to predicted CLint, in vivo (mL min^−1 kg^−1) from incubation parameters according to the equation CLint, in vivo=CLint, in vitro×(incubation volume (ml)/amount protein (mg))×(amount protein (mg)/g liver tissue)×(liver weight/body wt.). For better across species comparison the predicted clearance is expressed as percent of the liver blood flow [% QH] (mL min^−1 kg^−1) in the individual species. In general, high stability (corresponding to low % QH) of the compounds across species is desired.

[2] = Solubility measurement (DMSO solution precipitation method); assay type: physicochemical; conditions: aqueous buffer, kinetic from dmso stock, ambient temperature
Experimental: The DMSO solution is diluted with an aqueous medium (McIlvaine buffer with pH=4.5 or 6.8) to a final concentration of 250 μM. After 24 h of shaking at ambient temperature a potentially formed precipitate is removed by filtration. The concentration of the test compound in the filtrate is determined by LC-UV methods by calibrating the signal to the signal of a reference solution with complete dissolution of the test compound in acetonitrile/water (1:1) with known concentration.

KRAS G12V Ba/F3 cells = KRAS G12V Ba/F3 cells (Homo sapiens, UniProt P01116, G12V, cells depend on it); experiment: Ba/F3 proliferation assay, KRAS G12V; assay type: cell-based; conditions: 72 h, AlamarBlue; read-out: KRAS G12V Ba/F3 IC50
Experimental: as §7

[3] = McIlvaine buffer pH 4.5, 24 h, read-out: solubility pH 4.5
[4] = McIlvaine buffer pH 6.8, 24 h, read-out: solubility pH 6.8

Chain of KRAS G12D Ba/F3 cells (P01116 whole entry G12D, canonical isoform): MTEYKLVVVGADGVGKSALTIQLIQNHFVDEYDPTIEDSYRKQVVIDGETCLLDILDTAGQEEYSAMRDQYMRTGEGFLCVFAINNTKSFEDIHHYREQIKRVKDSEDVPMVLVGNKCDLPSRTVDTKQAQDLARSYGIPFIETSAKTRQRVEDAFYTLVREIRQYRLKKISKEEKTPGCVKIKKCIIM
Chain of KRAS G12C Ba/F3 cells (P01116 whole entry G12C): as the sequence (P01116 whole entry G12D, canonical isoform) above, with D12C counted along it
T2 sequence (P01116 1-169 isoform P01116-2 G12C/C51S/C80L/C118S): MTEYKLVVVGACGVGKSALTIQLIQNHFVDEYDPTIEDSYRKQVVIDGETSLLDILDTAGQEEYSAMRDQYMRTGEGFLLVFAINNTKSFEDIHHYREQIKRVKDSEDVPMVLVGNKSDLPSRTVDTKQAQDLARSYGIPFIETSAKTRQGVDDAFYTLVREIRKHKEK
T1 sequence (P01116 1-169 isoform P01116-2 G12D): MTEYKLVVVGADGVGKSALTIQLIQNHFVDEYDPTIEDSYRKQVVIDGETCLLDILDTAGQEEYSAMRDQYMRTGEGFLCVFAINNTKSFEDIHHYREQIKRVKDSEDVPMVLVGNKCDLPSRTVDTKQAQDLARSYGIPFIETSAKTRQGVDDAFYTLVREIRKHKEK
T3 sequence (P01116 1-169 isoform P01116-2 C118S): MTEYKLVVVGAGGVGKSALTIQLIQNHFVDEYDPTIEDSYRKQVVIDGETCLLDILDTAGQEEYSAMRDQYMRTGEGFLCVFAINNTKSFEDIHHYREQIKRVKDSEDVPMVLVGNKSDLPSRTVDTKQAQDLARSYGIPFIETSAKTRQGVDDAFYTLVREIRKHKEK
Chain of KRAS G12V Ba/F3 cells (P01116 whole entry G12V): as the sequence (P01116 whole entry G12D, canonical isoform) above, with D12V counted along it

SMILES	IC50 (KRAS (G12D)::SOS1) [nM]	IC50 (KRAS (G12C)::SOS1) [nM]	IC50 (KRAS (WT)::SOS1) [nM]	GI50 (KRAS G12D Ba/F3 cells) [nM]	GI50 (KRAS G12C Ba/F3 cells) [nM]	HLM QH [1] [%]	solubility at 24 h [2, 3] [µg/mL]	solubility at 24 h [2, 4] [µg/mL]	GI50 (KRAS G12V Ba/F3 cells) [nM]
C[C@H](Oc1nccc(-c2n[nH]c3c2CCCC32CCCc3sc(N)c(C#N)c32)n1)[C@@H]1CCCN1C (stereo partly drawn) [IIIa-1]	16	28		697	930				
C[C@H]1CNCCCN1c1nccc(-c2nn(C)c3c2CCC32CCCc3sc(N)c(C#N)c32)n1 (stereo partly drawn) [IIIb-1]	1770	1590		15100	11500	31			10400
C[C@H](Oc1nccc(-c2nnn3c2CCCC32CCCc3sc(N)c(C#N)c32)n1)[C@@H]1CCCN1C (stereo partly drawn) [IVa-1]	18	56		381	521	80			
C[C@H]1CNCCCN1c1cccc(-c2onc3c2CCC[C@@]32CCCc3sc(N)c(C#N)c32)n1 [Ib-3]	8	19			317	<24			
C[C@@H](O)CN1CCCN(c2nccc(-c3onc4c3CCC[C@@]43CCCc4sc(N)c(C#N)c43)n2)[C@@H](C)C1 [Ig-4]	3	6	21	88	108	>88	> 153	76 (≈ 142 µM)	

Further lines, results first:

IC50 (KRAS (G12D)::SOS1) [nM]	IC50 (KRAS (G12C)::SOS1) [nM]	IC50 (KRAS (WT)::SOS1) [nM]	GI50 (KRAS G12D Ba/F3 cells) [nM]	GI50 (KRAS G12C Ba/F3 cells) [nM]	HLM QH [1] [%]	solubility at 24 h [2, 3] [µg/mL]	solubility at 24 h [2, 4] [µg/mL]	GI50 (KRAS G12V Ba/F3 cells) [nM]	SMILES
4	10	25	23	10	>88	107 (≈ 191 µM)	< 1		C[C@H]1CN(C2CCOCC2)CCCN1c1nccc(-c2noc3c2CCC[C@@]32CCCc3sc(N)c(C#N)c32)n1 (single isomer, unassigned) [IIg-1]
3	8		48	89	>88	23 (≈ 43.4 µM)	10 (≈ 18.9 µM)		C[C@H]1CN(CC2CC2)CCCN1c1nccc(-c2onc3c2CCC[C@@]32CCCc3sc(N)c(C#N)c32)n1 [Ig-1]
4	12		174	123		> 110	< 1		C[C@H]1CN(C2CCOC2)CCCN1c1nccc(-c2onc3c2CCC[C@@]32CCCc3sc(N)c(C#N)c32)n1 (stereo partly drawn) [Ig-2]
